Values quoted from earlier work in PubChem BioAssay AID1259409 (Chemical Carcinogenesis Research Information System (CCRIS), 2018).

Test system: rodent chemically induced tumor inhibition, incidence and multiplicity
Assay: CCRIS tumor inhibitor studies
Conditions: Promoter: NONE USED

| SMILES | tumour outcome (control, treated, inhibition, significance) (Carcinogen: BENZO[A]PYRENE, 50-32-8, Dose [Inhibitor]: 0, 3.3 UMOL/G DIET BEGINNING 1 WK PRIOR TO CARCINOGEN TREATMENT AND CONTINUING FOR 1 WK POST CARCINOGEN TREATMENT FOLLOW, Route [Inhibitor]: ORAL, Species: MOUSE, Strain/Sex: CD-1/FEMALE, Target Tissue: Type of Lesion: FORESTOMACH: PAPILLOMA, Dose [Carcinogen]: 1 MG IN 0.2 ML CORN OIL 2/WK FOR 4 WK) | tumour outcome (control, treated, inhibition, significance) (Carcinogen: CADMIUM CHLORIDE, 10108-64-2, Dose [Inhibitor]: 0.1 MMOL/KG IN 0.9% STERILE SALINE ADMINISTERED IN 3 SEPARATE DOSES AT 6 HR PRIOR TO, CONCURRENTLY WITH AND 18 HR POST C, Route [Inhibitor]: SUBCUTANEOUS, Species: RAT, Strain/Sex: WISTAR/MALE, Target Tissue: Type of Lesion: PROSTATE GLAND: ADENOMA, Dose [Carcinogen]: 30 UMOL/KG IN 0.9% STERILE SALINE ONCE) | tumour outcome (control, treated, inhibition, significance) (Carcinogen: CADMIUM CHLORIDE, 10108-64-2, Dose [Inhibitor]: 0.3 MMOL/KG IN 0.9% STERILE SALINE ADMINISTERED IN 3 SEPARATE DOSES AT 6 HR PRIOR TO, CONCURRENTLY WITH AND 18 HR POST C, Route [Inhibitor]: SUBCUTANEOUS, Species: RAT, Strain/Sex: WISTAR/MALE, Target Tissue: Type of Lesion: PROSTATE GLAND: ADENOMA, Dose [Carcinogen]: 30 UMOL/KG IN 0.9% STERILE SALINE ONCE) | tumour outcome (control, treated, inhibition, significance) (Carcinogen: CADMIUM CHLORIDE, 10108-64-2, Dose [Inhibitor]: 1.0 MMOL/KG IN 0.9% STERILE SALINE ADMINISTERED IN 3 SEPARATE DOSES AT 6 HR PRIOR TO, CONCURRENTLY WITH AND 18 HR POST C, Route [Inhibitor]: SUBCUTANEOUS, Species: RAT, Strain/Sex: WISTAR/MALE, Target Tissue: Type of Lesion: PROSTATE GLAND: ADENOMA, Dose [Carcinogen]: 30 UMOL/KG IN 0.9% STERILE SALINE ONCE) | tumour outcome (control, treated, inhibition, significance) (Carcinogen: CADMIUM CHLORIDE, 10108-64-2, Dose [Inhibitor]: 100 PPM IN DRINKING WATER BEGINNING 2 WK PRIOR TO CARCINOGEN DOSE AND CONTINUING FOR DURATION OF STUDY (STUDY DURATION:, Route [Inhibitor]: ORAL, Species: RAT, Strain/Sex: WISTAR/MALE, Target Tissue: Type of Lesion: PROSTATE GLAND: ADENOMA, Dose [Carcinogen]: 30 UMOL/KG IN 0.9% STERILE SALINE ONCE) | tumour outcome (control, treated, inhibition, significance) (Carcinogen: CADMIUM(II) CHLORIDE, 10108-64-2, Dose [Inhibitor]: 0.1 MMOL/KG IN 0.9% STERILE SALINE ADMINISTERED IN 3 SEPARATE DOSES AT 6 HR PRIOR TO CARCINOGEN DOSE, CONCURRENTLY WITH, Route [Inhibitor]: SUBCUTANEOUS, Species: RAT, Strain/Sex: WISTAR/MALE, Target Tissue: Type of Lesion: INJECTION SITE: SARCOMA OR EPIDERMAL TUMOR, Dose [Carcinogen]: 30 UMOL/KG IN 0.9% STERILE SALINE ONCE) | tumour outcome (control, treated, inhibition, significance) (Carcinogen: CADMIUM(II) CHLORIDE, 10108-64-2, Dose [Inhibitor]: 0.1 MMOL/KG IN 0.9% STERILE SALINE ADMINISTERED IN 3 SEPARATE DOSES AT 6 HR PRIOR TO CARCINOGEN DOSE, CONCURRENTLY WITH, Route [Inhibitor]: SUBCUTANEOUS, Species: RAT, Strain/Sex: WISTAR/MALE, Target Tissue: Type of Lesion: TESTES: LEYDIG CELL ADENOMA OR MIXED SERTOLI-LEYDIG CELL TUMOR, Dose [Carcinogen]: 30 UMOL/KG IN 0.9% STERILE SALINE ONCE) | tumour outcome (control, treated, inhibition, significance) (Carcinogen: CADMIUM(II) CHLORIDE, 10108-64-2, Dose [Inhibitor]: 0.3 MMOL/KG IN 0.9% STERILE SALINE ADMINISTERED IN 3 SEPARATE DOSES AT 6 HR PRIOR TO CARCINOGEN DOSE, CONCURRENTLY WITH, Route [Inhibitor]: SUBCUTANEOUS, Species: RAT, Strain/Sex: WISTAR/MALE, Target Tissue: Type of Lesion: INJECTION SITE: SARCOMA, Dose [Carcinogen]: 30 UMOL/KG IN 0.9% STERILE SALINE ONCE) | tumour outcome (control, treated, inhibition, significance) (Carcinogen: CADMIUM(II) CHLORIDE, 10108-64-2, Dose [Inhibitor]: 0.3 MMOL/KG IN 0.9% STERILE SALINE ADMINISTERED IN 3 SEPARATE DOSES AT 6 HR PRIOR TO CARCINOGEN DOSE, CONCURRENTLY WITH, Route [Inhibitor]: SUBCUTANEOUS, Species: RAT, Strain/Sex: WISTAR/MALE, Target Tissue: Type of Lesion: TESTES: LEYDIG CELL ADENOMA, Dose [Carcinogen]: 30 UMOL/KG IN 0.9% STERILE SALINE ONCE) | tumour outcome (control, treated, inhibition, significance) (Carcinogen: CADMIUM(II) CHLORIDE, 10108-64-2, Dose [Inhibitor]: 1.0 MMOL/KG IN 0.9% STERILE SALINE ADMINISTERED IN 3 SEPARATE DOSES AT 6 HR PRIOR TO CARCINOGEN DOSE, CONCURRENTLY WITH, Route [Inhibitor]: SUBCUTANEOUS, Species: RAT, Strain/Sex: WISTAR/MALE, Target Tissue: Type of Lesion: INJECTION SITE: SARCOMA OR HEMANGIOMA OR EPIDERMAL TUMOR, Dose [Carcinogen]: 30 UMOL/KG IN 0.9% STERILE SALINE ONCE) | tumour outcome (control, treated, inhibition, significance) (Carcinogen: CADMIUM(II) CHLORIDE, 10108-64-2, Dose [Inhibitor]: 1.0 MMOL/KG IN 0.9% STERILE SALINE ADMINISTERED IN 3 SEPARATE DOSES AT 6 HR PRIOR TO CARCINOGEN DOSE, CONCURRENTLY WITH, Route [Inhibitor]: SUBCUTANEOUS, Species: RAT, Strain/Sex: WISTAR/MALE, Target Tissue: Type of Lesion: INJECTION SITE: SARCOMA, Dose [Carcinogen]: 30 UMOL/KG IN 0.9% STERILE SALINE ONCE) | tumour outcome (control, treated, inhibition, significance) (Carcinogen: CADMIUM(II) CHLORIDE, 10108-64-2, Dose [Inhibitor]: 1.0 MMOL/KG IN 0.9% STERILE SALINE ADMINISTERED IN 3 SEPARATE DOSES AT 6 HR PRIOR TO CARCINOGEN DOSE, CONCURRENTLY WITH, Route [Inhibitor]: SUBCUTANEOUS, Species: RAT, Strain/Sex: WISTAR/MALE, Target Tissue: Type of Lesion: TESTES: LEYDIG CELL ADENOMA OR SEMINOMA, Dose [Carcinogen]: 30 UMOL/KG IN 0.9% STERILE SALINE ONCE) | tumour outcome (control, treated, inhibition, significance) (Carcinogen: CADMIUM(II) CHLORIDE, 10108-64-2, Dose [Inhibitor]: 1.0 MMOL/KG IN 0.9% STERILE SALINE ADMINISTERED IN 3 SEPARATE DOSES AT 6 HR PRIOR TO CARCINOGEN DOSE, CONCURRENTLY WITH, Route [Inhibitor]: SUBCUTANEOUS, Species: RAT, Strain/Sex: WISTAR/MALE, Target Tissue: Type of Lesion: TESTES: LEYDIG CELL ADENOMA, Dose [Carcinogen]: 30 UMOL/KG IN 0.9% STERILE SALINE ONCE) | tumour outcome (control, treated, inhibition, significance) (Carcinogen: CADMIUM(II) CHLORIDE, 10108-64-2, Dose [Inhibitor]: 100 PPM IN DRINKING WATER BEGINNING 2 WK PRIOR TO CARCINOGEN DOSE AND CONTINUING FOR DURATION OF STUDY (STUDY DURATION:, Route [Inhibitor]: ORAL, Species: RAT, Strain/Sex: WISTAR/MALE, Target Tissue: Type of Lesion: INJECTION SITE: SARCOMA AND FIBROMA, Dose [Carcinogen]: 30 UMOL/KG IN 0.9% STERILE SALINE ONCE) | tumour outcome (control, treated, inhibition, significance) (Carcinogen: CADMIUM(II) CHLORIDE, 10108-64-2, Dose [Inhibitor]: 100 PPM IN DRINKING WATER BEGINNING 2 WK PRIOR TO CARCINOGEN DOSE AND CONTINUING FOR DURATION OF STUDY (STUDY DURATION:, Route [Inhibitor]: ORAL, Species: RAT, Strain/Sex: WISTAR/MALE, Target Tissue: Type of Lesion: TESTES: LEYDIG CELL ADENOMA, Dose [Carcinogen]: 30 UMOL/KG IN 0.9% STERILE SALINE ONCE) |
| --- | --- | --- | --- | --- | --- | --- | --- | --- | --- | --- | --- | --- | --- | --- | --- |
| COc1ccc([SeH])cc1 | 85%, 75%, 12%, not significant | – | – | – | – | – | – | – | – | – | – | – | – | – | – |
| CC(=O)[O-].CC(=O)[O-].O.O.[Zn+2] | – | 7/30 (23%), 6/30 (20%), 13%, not calculated | 7/30 (23%), 5/28 (18%), 22%, not calculated | 11/26 (42%), 7/28 (25%), 40%, not calculated | 7/30 (23%), 7/30 (23%), 0% | 13/30 (43%), 9/30 (30%), 30%, not calculated | 22/30 (73%), 23/30 (77%), -5%, not calculated | 13/30 (43%), 10/29 (34%), 21%, not calculated | 22/30 (73%), 14/29 (48%), 34%, not calculated | 13/30 (43%), 9/29 (31%), 28%, not calculated | 3/29 (10%), 1/29 (3%), 70%, not calculated | 4/29 (14%), 7/30 (23%), -64%, not calculated | 22/30 (73%), 3/28 (11%), 85%, not calculated | 13/30 (43%), 1/30 (3%), 93%, not calculated | 22/30 (73%), 25/30 (83%), -14%, not calculated |
